From publication PMC8034593 (The FEBS journal, 2020)

Target: KanJ (kanamycin B dioxygenase) (Streptomyces kanamyceticus, UniProt Q6L732)
Assay: isothermal titration calorimetry
Format: binding

KanJ (kanamycin B dioxygenase), sequence (Q6L732 whole entry): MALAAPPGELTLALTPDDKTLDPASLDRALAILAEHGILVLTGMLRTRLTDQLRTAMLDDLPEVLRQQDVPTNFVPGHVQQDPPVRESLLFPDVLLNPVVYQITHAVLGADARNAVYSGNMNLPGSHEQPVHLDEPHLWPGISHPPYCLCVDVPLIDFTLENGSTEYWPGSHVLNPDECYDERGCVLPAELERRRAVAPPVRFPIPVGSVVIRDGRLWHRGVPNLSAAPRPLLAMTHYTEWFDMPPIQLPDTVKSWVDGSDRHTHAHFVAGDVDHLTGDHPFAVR

Kd: 1540 nM
SMILES: NC[C@H]1O[C@H](O[C@H]2[C@H](O)[C@@H](O[C@H]3O[C@H](CO)[C@@H](O)[C@H](N)[C@H]3O)[C@H](N)C[C@@H]2N)[C@H](N)[C@@H](O)[C@@H]1O [KAN, kanamycin B]
